Laboratory results as given in patent US20020183256A1, “Cytostatic-integrin conjugates having specifically cleavable linking units” (priority 2000, published 2002).
Like-named read-outs stand apart in the source and are kept apart here. *1 amine or outer side, *2 acyl side, *3 side chain or, on linkers, in order; H or OH if unused. Where a SMILES comes first, the peptide text is derived from it. [ ]: non-standard residue; d: D form. The star is where a group is joined. Camptothecin(20R,20-O) = CC[C@]1(O*)C(=O)OCc2c1cc1n(c2=O)Cc2cc3ccccc3nc2-1; X2 = CCCNC(=O)Nc1cccc(S(=O)(=O)Nc2cccc(C(CC(=O)O)NC(=O)Nc3ccc(N*)cc3)c2)c1; X1 = CCCNC(=O)Nc1cccc(S(=O)(=O)Nc2cccc(C(CC(=O)O)N*)c2)c1; NH(1,4-C6H4)NHCS = S=C(Nc1ccc(N[*:1])cc1)[*:2]; CO = O=C([*:1])[*:2]

Legend:
[1] = biological target: T1, αvβ3 receptor (Homo sapiens, UniProt P05106+P06756); assay: αvβ3 binding test (echistatin displacement, WGA SPA beads); details: αvβ3 from human A375 cells
T1 construct: αvβ3 from human A375 cells was purified; endogenous in cells; host or cells: human A375 cells (receptor purified from the cells, analogous to Wong et al. 1996)
Procedure: αvβ3 from human A375 cells was purified analogously to a procedure which was described by Wong et al. (Molecular Pharmacology, 50, 529-537 (1996)). In each case, 10 μl of αvβ3 (5 ng) in TBS pH 7.6, 2 mM CaCl2, 1 mM MgCl2, 1% n-octylglucopyranoside (Sigma); 10 μl of test substance in TBS pH 7.6, 0.1% DMSO and 45 μl of TBS pH 7.6, 2 mM CaCl2, 1 mM MgCl2, 1 mM MnCl2 were incubated at room temperature for 1 h. In each case, 25 μl of WGA SPA beads (Amersham, 4 mg/ml) and 10 μl of echistatin (0.1 μCi, Amersham, chloramine-T labelled) were then added. After 16 hours at room temperature, the samples were measured in a scintillation measuring apparatus (Wallac 1450).

[2] = system: HT29; assay: Growth inhibition test (MTT), cytotoxic action on tumour cell lines; format: cell-based, human
Procedure: (§1) The human large intestine cell lines SW 480 and HT29 (ATCC No. CCL 228 and HTB38 and the mouse melanoma cell line B16F10 (CRL 6475) were grown to confluence in Roux dishes in RPMI 1640 medium with addition of 10% FCS. They were then trypsinized and taken up in RPMI plus 10% FCS to a cell count of 50,000 cells or, for B16F10, 20,000 cells per ml. 100 μl of cell suspension/well were added to a 96 microwell plate and incubated at 37° C. for 1 day in a CO2 incubator. A further 100 μl of RPMI medium and 1 μl of DMSO were then added with the test substances. The growth was checked after day 6. For this, 25 μl of MTT solution (3-(4,5-dimethylthiazol-2-yl)-2,5-diphenyltetrazolium bromide) was added to each well at a starting concentration of 5 mg/ml of H2O. The plate was incubated at 37° C. for 5 hours in a CO2 incubator. The medium was then aspirated and 100 μl of i-propanol/well were added. After shaking with 100 μl of H2O for 30 min, the extinction was measured at 595 nm using a Multiplate Reader (BIO-RAD) 3550-UV).
(§2) The cytostatic action is indicated in Table 2 as an IC50 value, in each case for the individual cell lines.

[3] = system: SW 480; assay: as above; format: cell-based, human
Procedure: as §1, §2

[4] = system: B16F10; assay: as above; format: cell-based, mouse
Procedure: as §1, §2

[5] = biological target: T2, MMP-2 (Homo sapiens, UniProt P08253); assay: Cleavage of conjugates by MMP-2 in buffer (HPLC); format: biochemical; details: after 6 h incubation with MMP-2; buffer pH 7.5
T2 construct: purchased Calbiochem
T2 sequence (P08253 110-660): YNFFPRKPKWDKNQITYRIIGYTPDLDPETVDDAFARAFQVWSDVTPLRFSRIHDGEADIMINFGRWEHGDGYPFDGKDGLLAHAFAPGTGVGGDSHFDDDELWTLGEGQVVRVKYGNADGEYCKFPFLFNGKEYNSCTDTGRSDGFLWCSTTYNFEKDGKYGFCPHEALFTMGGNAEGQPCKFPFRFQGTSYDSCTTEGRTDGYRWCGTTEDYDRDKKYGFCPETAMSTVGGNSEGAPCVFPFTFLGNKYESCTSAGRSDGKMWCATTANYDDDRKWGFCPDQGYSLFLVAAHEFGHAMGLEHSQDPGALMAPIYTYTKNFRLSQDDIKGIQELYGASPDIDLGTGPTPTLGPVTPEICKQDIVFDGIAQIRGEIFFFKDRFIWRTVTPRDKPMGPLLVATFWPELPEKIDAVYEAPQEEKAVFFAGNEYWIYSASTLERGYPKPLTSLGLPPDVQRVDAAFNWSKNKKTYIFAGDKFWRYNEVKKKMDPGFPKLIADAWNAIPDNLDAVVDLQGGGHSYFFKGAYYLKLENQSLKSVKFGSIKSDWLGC
Procedure: 2.5 μl MMP-2 (Calbiochem) with a specific activity of 60 μU/μl are incubated with 10 nM of the conjugates exemplified in the example series 1-25 in 1 ml of a medium consisting of 50 mM Tris-HCl pH 7.5, 0.2 M NaCl, 10 mM CaCL2*2H2O and 0.05% Brij 35. The enzyme mediated cleavage of the conjugates is detected by HPLC analysis using an RP18 (5 μM) column with 70% HClO4/water (0.4% v/v) as eluent A and acentonitrile as eluent B (UV detection at […]). The efficiency of the cleavage is assessed by comparing the peak areas of the intact conjugate (starting material) and the cleavage product (tripeptide conjugate of camptothecin) after 6 h and 24 h incubation (cf. Table 5).

[6] = read-out: IC50 values of the binding to the αvβ3 receptor
[7] = IC50 values of the binding to the αvβ3 receptor
[8] = HT29, MTT after day 6, read-out: IC50 values of the cytotoxic action on tumour cell lines, HT29
[9] = SW480, MTT after day 6, read-out: IC50 values of the cytotoxic action on tumour cell lines, SW480
[10] = B16F10, MTT after day 6, read-out: IC50 values of the cytotoxic action on tumour cell lines, B16F10

T1 sequence (P06756 31-889 limits assumed): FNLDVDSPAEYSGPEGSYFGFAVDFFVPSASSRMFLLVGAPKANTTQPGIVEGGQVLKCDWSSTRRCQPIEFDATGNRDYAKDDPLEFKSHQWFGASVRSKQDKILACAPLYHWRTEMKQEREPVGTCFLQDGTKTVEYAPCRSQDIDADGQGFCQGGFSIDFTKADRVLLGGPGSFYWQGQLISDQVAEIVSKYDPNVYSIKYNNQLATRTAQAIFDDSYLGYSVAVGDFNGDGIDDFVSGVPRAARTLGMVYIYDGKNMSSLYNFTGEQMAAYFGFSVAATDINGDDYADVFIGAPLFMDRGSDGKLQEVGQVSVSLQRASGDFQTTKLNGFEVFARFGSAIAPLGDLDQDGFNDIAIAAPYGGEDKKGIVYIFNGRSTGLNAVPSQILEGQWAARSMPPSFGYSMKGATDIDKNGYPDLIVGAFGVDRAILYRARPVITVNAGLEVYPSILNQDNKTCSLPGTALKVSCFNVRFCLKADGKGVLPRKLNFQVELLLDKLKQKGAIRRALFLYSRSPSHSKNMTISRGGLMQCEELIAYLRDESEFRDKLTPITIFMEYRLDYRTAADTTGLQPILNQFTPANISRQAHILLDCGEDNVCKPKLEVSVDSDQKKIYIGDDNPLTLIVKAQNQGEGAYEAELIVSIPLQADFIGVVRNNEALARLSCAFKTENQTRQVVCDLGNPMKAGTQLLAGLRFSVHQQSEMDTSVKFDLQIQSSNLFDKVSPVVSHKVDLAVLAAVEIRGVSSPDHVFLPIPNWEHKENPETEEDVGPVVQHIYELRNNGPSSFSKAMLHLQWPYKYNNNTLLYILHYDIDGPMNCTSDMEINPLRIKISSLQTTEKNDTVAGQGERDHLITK
T1 sequence (P06756 891-1048 partner limits assumed): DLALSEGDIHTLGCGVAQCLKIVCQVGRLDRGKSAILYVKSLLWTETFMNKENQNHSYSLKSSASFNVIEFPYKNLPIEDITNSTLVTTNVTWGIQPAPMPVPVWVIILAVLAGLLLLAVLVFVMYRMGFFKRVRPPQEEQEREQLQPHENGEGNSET
T1 sequence (P05106 27-788): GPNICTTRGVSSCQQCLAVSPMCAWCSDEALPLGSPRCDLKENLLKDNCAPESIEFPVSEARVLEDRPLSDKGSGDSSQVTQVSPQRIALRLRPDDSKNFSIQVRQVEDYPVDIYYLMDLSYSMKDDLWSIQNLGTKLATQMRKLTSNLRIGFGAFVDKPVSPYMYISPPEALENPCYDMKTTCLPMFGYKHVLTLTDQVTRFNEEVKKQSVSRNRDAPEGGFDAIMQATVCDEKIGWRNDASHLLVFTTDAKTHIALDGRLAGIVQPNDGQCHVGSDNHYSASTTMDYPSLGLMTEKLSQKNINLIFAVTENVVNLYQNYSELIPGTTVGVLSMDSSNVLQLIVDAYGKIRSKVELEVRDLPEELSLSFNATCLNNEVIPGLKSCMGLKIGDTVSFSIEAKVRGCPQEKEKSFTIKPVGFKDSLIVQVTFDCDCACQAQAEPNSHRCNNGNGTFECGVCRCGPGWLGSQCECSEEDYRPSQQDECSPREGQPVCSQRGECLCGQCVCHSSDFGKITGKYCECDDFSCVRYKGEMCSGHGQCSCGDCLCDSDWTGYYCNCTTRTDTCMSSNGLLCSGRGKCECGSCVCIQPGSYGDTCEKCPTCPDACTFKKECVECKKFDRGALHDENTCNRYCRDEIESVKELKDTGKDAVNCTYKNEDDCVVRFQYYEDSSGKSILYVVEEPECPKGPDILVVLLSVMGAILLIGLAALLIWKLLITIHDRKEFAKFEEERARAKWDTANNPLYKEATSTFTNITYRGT

Row | SMILES | IC50 [1, 6] | IC50 ([2]; human, 6 days) | IC50 ([3]; human, 6 days) | IC50 ([4]; mouse, 6 days) | IC50 [1, 7] | IC50 [2, 8] | IC50 [3, 9] | IC50 [4, 10] | MMP-2 mediated cleavage Peak area product/educt x100 [5]
1 | CCCNC(=O)Nc1cccc(S(=O)(=O)Nc2cccc(C(CC(=O)O)NC(=O)Nc3ccc(NC(=S)N4CCC[C@@H]4C(=O)N[C@@H](CC(C)C)C(=O)NCC(=O)N[C@H](CC(C)C)C(=O)N[C@H](CC(N)=O)C(=O)N[C@@H](C(=O)O[C@@]4(CC)C(=O)OCc5c4cc4n(c5=O)Cc5cc6ccccc6nc5-4)C(C)C)cc3)c2)c1 (stereo partly shown) [Example 9] | 30 nM | 80 nM | 60 nM | 400 nM | – | – | – | – | –
2 | CCCNC(=O)Nc1cccc(S(=O)(=O)Nc2cccc(C(CC(=O)O)NC(=O)Nc3ccc(NC(=O)N4CCC[C@@H]4C(=O)N[C@@H](CC(C)C)C(=O)NCC(=O)N[C@H](CC(C)C)C(=O)N[C@H](CC(N)=O)C(=O)N[C@@H](C(=O)O[C@@]4(CC)C(=O)OCc5c4cc4n(c5=O)Cc5cc6ccccc6nc5-4)C(C)C)cc3)c2)c1 (stereo partly drawn) [Example 12] ({X2-CO}-[dP]LG[dL][dN][dV]-{Camptothecin(20R,20-O)}) | – | – | – | – | 300 nM | 30 nM | 40 nM | 150 nM | 70
3 | CCCNC(=O)Nc1cccc(S(=O)(=O)Nc2cccc(C(CC(=O)O)NC(=O)Nc3ccc(NC(=S)N4CCC[C@@H]4C(=O)N[C@@H](CC(C)C)C(=O)NCC(=O)N[C@H](CC(C)C)C(=O)N[C@H](CSC)C(=O)N[C@@H](C(=O)O[C@@]4(CC)C(=O)OCc5c4cc4n(c5=O)Cc5cc6ccccc6nc5-4)C(C)C)cc3)c2)c1 (stereo partly drawn) [Example 13] ({X1-CO}-[NH(1,4-C6H4)NHCS][dP]LG[dL][dC](Me)[dV]-{Camptothecin(20R,20-O)}) | – | – | – | – | 50 nM | 100 nM | 80 nM | 400 nM | –
4 | CCCNC(=O)Nc1cccc(S(=O)(=O)Nc2cccc(C(CC(=O)O)NC(=O)Nc3ccc(NC(=O)N4CCC[C@@H]4C(=O)N[C@@H](CC(C)C)C(=O)NCC(=O)N[C@H](CC(C)C)C(=O)N[C@H](Cc4c[nH]c5ccccc45)C(=O)N[C@@H](C(=O)O[C@@]4(CC)C(=O)OCc5c4cc4n(c5=O)Cc5cc6ccccc6nc5-4)C(C)C)cc3)c2)c1 (stereo partly drawn) [Example 15] ({X2-CO}-[dP]LG[dL][dW][dV]-{Camptothecin(20R,20-O)}) | – | – | – | – | 500 nM | 500 nM | 1500 nM | 8000 nM | –
5 | CCCNC(=O)Nc1cccc(S(=O)(=O)Nc2cccc(C(CC(=O)O)NC(=O)Nc3ccc(NC(=S)N4CCC[C@@H]4C(=O)N[C@@H](CC(C)C)C(=O)NCC(=O)N[C@H](CSC)C(=O)N[C@H](Cc4c[nH]cn4)C(=O)N[C@@H](C(=O)O[C@@]4(CC)C(=O)OCc5c4cc4n(c5=O)Cc5cc6ccccc6nc5-4)C(C)C)cc3)c2)c1 (stereo partly shown) [Example 19] | 20 nM | 80 nM | 60 nM | 300 nM | – | – | – | – | –
6 | CCCNC(=O)Nc1cccc(S(=O)(=O)Nc2cccc(C(CC(=O)O)NC(=O)Nc3ccc(NC(=S)N4CCC[C@@H]4C(=O)N[C@@H](CC(C)C)C(=O)NCC(=O)N[C@H](CC(C)C)C(=O)N[C@H](CCCCN)C(=O)N[C@H](C(=O)O[C@@]4(CC)C(=O)OCc5c4cc4n(c5=O)Cc5cc6ccccc6nc5-4)C(C)C)cc3)c2)c1 (stereo partly drawn) [Example 20] ({X1-CO}-[NH(1,4-C6H4)NHCS][dP]LG[dL][dK]V-{Camptothecin(20R,20-O)}) | – | – | – | – | 50 nM | 70 nM | 50 nM | 300 nM | –
